The subject of one experiment is XBP-1 splicing in ARPE-19 cells or apoptosis of INS-1 cells expressing mIRE-1. Kind of experiment: Cellular assay (XBP1 splicing assay or apoptosis assay). The experiment is classed as cell-based. The conditions noted are these: data are for the XBP1 splicing assay or the apoptosis assay (not specified per compound). The procedure: ARPE-19 cells stably expressing XBP-1 (a.a. 1-376) with nano-luciferase gene sequence linked so it is in frame when XBP-1 is spliced, were cultured in F12 media, 10% FBS, 0.044% sodium bicarbonate, 150 μg/ml hygromycin B and seeded for assays at 5,000 cells in 384 well plates in culture media without hygromycin B and incubated at 37° C./5% CO2. […] After further incubation of 30 minutes thapsigargin was added (final concentration 150 nM) and then another 4 hour incubation. A NanoLuc luciferase assay (Promega) was used according to the manufacturer's instructions to detect the luciferase and luminescence measured on a luminometer (EnVision, PerkinElmer).
Doxycycline (final concentration 100 nM) was added and plates incubated for a further 72 hours. To determine the proportion of apoptotic cells Hoechst 33342 (final concentration 10 μg/mL) was added, then after 30 minutes incubation cells imaged and analyzed on an InCell high content imager.
Usually IC50 stands for the concentration needed to halve the response being measured. `CNC1CC=C(c2cnc(N)c3c(-c4ccc(NC(=O)Nc5cccnc5)c5ccccc45)nc(C)n23)CC1` (stereo not shown) [Example 147, 1-(4-(8-amino-3-methyl-5-(4-(methylamino)cyclohex-1-en-1-yl)imidazo[1,5-a]pyrazin-1-yl)naphthalen-1-yl)-3-(pyridin-3-yl)urea] registered an IC50 of 3100 nM.

The molecule `CNC1CC=C(c2cnc(N)c3c(-c4ccc(NC(=O)Nc5cncc(OC)c5)cc4F)nc(C(C)C)n23)CC1` (stereo not shown) [Example 148, 1-(4-(8-amino-3-isopropyl-5-(4-(methylamino)cyclohex-1-en-1-yl)imidazo[1,5-a]pyrazin-1-yl)-3-fluorophenyl)-3-(5-methoxypyridin-3-yl)urea] registered an IC50 of 1300 nM.

Molecule `CNC1CC=C(c2cnc(N)c3c(-c4ccc(NC(=O)Nc5cncc(F)c5)cc4F)nc(C(C)C)n23)CC1` (stereo not shown) [Example 149, 1-(4-(8-amino-3-isopropyl-5-(4-(methylamino)cyclohex-1-en-1-yl)imidazo[1,5-a]pyrazin-1-yl)-3-fluorophenyl)-3-(5-fluoropyridin-3-yl)urea] yielded an IC50 of 780 nM.

`CNC1CC=C(c2cnc(N)c3c(-c4ccc(NC(=O)Nc5ccsc5)c5ccccc45)nc(C(C)C)n23)CC1` (stereo not shown) [Example 150, 1-(4-(8-amino-3-isopropyl-5-(4-(methylamino)cyclohex-1-en-1-yl)imidazo[1,5-a]pyrazin-1-yl)naphthalen-1-yl)-3-(thiophen-3-yl)urea] yielded an IC50 of 90 nM.

In turn, `CNC1CC=C(c2cnc(N)c3c(-c4ccc(NC(=O)Nc5cc(F)cc(F)c5)c5ccccc45)nc(C(C)C)n23)CC1` (stereo not shown) [Example 151, 1-(4-(8-amino-3-isopropyl-5-(4-(methylamino)cyclohex-1-en-1-yl)imidazo[1,5-a]pyrazin-1-yl)naphthalen-1-yl)-3-(3,5-difluorophenyl)urea] showed an IC50 of 60 nM.

Consider `CNC1CC=C(c2cnc(N)c3c(-c4ccc(NC(=O)Nc5ccccc5F)c5ccccc45)nc(C(C)C)n23)CC1` (stereo not shown) [Example 152, 1-(4-(8-amino-3-isopropyl-5-(4-(methylamino)cyclohex-1-en-1-yl)imidazo[1,5-a]pyrazin-1-yl)naphthalen-1-yl)-3-(2-fluorophenyl)urea], for which half-maximal inhibition (IC50) was put at 100 nM.

In turn, `CNC1CC=C(c2cncc3c(-c4ccc(NC(=O)Nc5ccccc5)c5ccccc45)nc(C(C)C)n23)CC1` (stereo not shown) [Example 155, 1-(4-(3-isopropyl-5-(4-(methylamino)cyclohex-1-en-1-yl)imidazo[1,5-a]pyrazin-1-yl)naphthalen-1-yl)-3-phenylurea] yielded an IC50 of 640 nM.

Regarding `CNC1CC=C(c2cnc(N)c3c(-c4ccc(Cc5nc6cccc(C)c6[nH]5)c5ccccc45)nc(C(C)C)n23)CC1` (stereo not shown) [Example 156, 3-Isopropyl-1-(4-((7-methyl-1H-benzo[d]imidazol-2-yl)methyl)naphthalen-1-yl)-5-(4-(methylamino)cyclohex-1-en-1-yl)imidazo[1,5-a]pyrazin-8-amine], the IC50 was 16 nM.

The molecule `CNC1CC=C(c2cnc(N)c3c(-c4ccc(Cc5ncc(-c6ccccc6)[nH]5)c5ccccc45)nc(C(C)C)n23)CC1` (stereo not shown) [Example 168, 3-Isopropyl-5-(4-(methylamino)cyclohex-1-en-1-yl)-1-(4-((5-phenyl-1H-imidazol-2-yl)methyl)naphthalen-1-yl)imidazo[1,5-a]pyrazin-8-amine] yielded an IC50 of 96 nM.

Molecule `CNC1CC=C(c2cnc(N)c3c(-c4ccc(NS(=O)(=O)Cc5ccccc5Cl)c(F)c4)nc(C(C)C)n23)CC1` (stereo not shown) [Example 169, N-(4-(8-Amino-3-isopropyl-5-(4-(methylamino)cyclohex-1-en-1-yl)imidazo[1,5-a]pyrazin-1-yl)-2-fluorophenyl)-1-(2-chlorophenyl)methanesulfonamide] displayed an IC50 of 31 nM.

Take `CNC1CC=C(c2cnc(N)c3c(-c4ccc(NS(=O)(=O)c5cc(C)ccc5F)c5ccccc45)nc(C(C)C)n23)CC1` (stereo not shown) [Example 185, N-(4-(8-amino-3-isopropyl-5-(4-(methylamino)cyclohex-1-en-1-yl)imidazo[1,5-a]pyrazin-1-yl)naphthalen-1-yl)-2-fluoro-5-methylbenzenesulfonamide]: the 50% inhibitory concentration (IC50) was 210 nM.

`CNC1CC=C(c2cnc(N)c3c(-c4ccc(NS(=O)(=O)c5cc(Cl)ccc5Cl)cc4F)nc(C(C)C)n23)CC1` (stereo not shown) [Example 195, N-(4-(8-amino-3-isopropyl-5-(4-(methylamino)cyclohex-1-en-1-yl)imidazo[1,5-a]pyrazin-1-yl)-3-fluorophenyl)-2,5-dichlorobenzenesulfonamide]: the IC50 was 66 nM.

As for `CNC1CC=C(c2cnc(N)c3c(-c4ccc(NS(=O)(=O)c5cc(C)ccc5F)c(F)c4)nc(C(C)C)n23)CC1` (stereo not shown) [Example 218, N-(4-{8-amino-5-[4-(methylamino)cyclohex-1-en-1-yl]-3-(propan-2-yl)imidazo[1,5-a]pyrazin-1-yl}-2-fluorophenyl)-2-fluoro-5-methylbenzene-1-sulfonamide], 25 nM corresponded to half-maximal inhibition (IC50).

Molecule `CNC1CC=C(c2cnc(N)c3c(-c4ccc(NS(=O)(=O)c5cc(C)ccc5Cl)c5ccccc45)nc(C(C)C)n23)CC1` (stereo not shown) [Example 219, N-(4-{8-amino-5-[4-(methylamino)cyclohex-1-en-1-yl]-3-(propan-2-yl)imidazo[1,5-a]pyrazin-1-yl}naphthalen-1-yl)-2-chloro-5-methylbenzene-1-sulfonamide] came in with an IC50 of 20 nM.

The molecule `CC(C)c1nc(-c2ccc(NS(=O)(=O)Cc3ccccc3Cl)c(F)c2)c2c(N)ncc(C3=CCC(NCCF)CC3)n12` (stereo not shown) [Example 220, N-(4-(8-amino-5-(4-((2-fluoroethyl)amino)cyclohex-1-en-1-yl)-3-isopropylimidazo[1,5-a]pyrazin-1-yl)-2-fluorophenyl)-1-(2-chlorophenyl) methanesulfonamide] gave an IC50 of 50 nM.

As for `CC(C)c1nc(-c2ccc(NS(=O)(=O)Cc3ccccc3Cl)c(F)c2)c2c(N)ncc(C3=CCC(O)CC3)n12` (stereo not shown) [Example 224, N-(4-(8-amino-5-(4-hydroxycyclohex-1-en-1-yl)-3-isopropylimidazo[1,5-a]pyrazin-1-yl)-2-fluorophenyl)-1-(2-chlorophenyl)methanesulfonamide], it took 42 nM to reach half-maximal inhibition (IC50).

`CC(C)c1nc(-c2ccc(NS(=O)(=O)c3ccccc3Cl)c(F)c2)c2c(N)ncc(C3=CCC(O)CC3)n12` (stereo not shown) [Example 225, N-(4-(8-amino-5-(4-hydroxycyclohex-1-en-1-yl)-3-isopropylimidazo[1,5-a]pyrazin-1-yl)-2-fluorophenyl)-2-chlorobenzenesulfonamide]: it took 250 nM to reach half-maximal inhibition (IC50).

As for `CC(C)c1nc(-c2ccc(NS(=O)(=O)c3ccccc3Cl)c(F)c2)c2c(N)ncc(C3=CCC(NCC(F)F)CC3)n12` (stereo not shown) [Example 226, N-(4-(8-amino-5-(4-((2,2-difluoroethyl)amino)cyclohex-1-en-1-yl)-3-isopropylimidazo[1,5-a]pyrazin-1-yl)-2-fluorophenyl)-2-chlorobenzenesulfonamide], 330 nM corresponded to half-maximal inhibition (IC50).

In the case of `CC(C)c1nc(-c2ccc(NS(=O)(=O)Cc3ccccc3Cl)c(F)c2)c2c(N)ncc(C3=CCC(NC4COC4)CC3)n12` (stereo not shown) [Example 227, N-(4-(8-amino-3-isopropyl-5-(4-(oxetan-3-ylamino)cyclohex-1-en-1-yl)imidazo[1,5-a]pyrazin-1-yl)-2-fluorophenyl)-1-(2-chlorophenyl)methanesulfonamide], it took 87 nM to reach half-maximal inhibition (IC50).

For the molecule `CC(C)c1nc(-c2cc(F)c(NS(=O)(=O)c3ccccc3Cl)cc2F)c2c(N)ncc(C3=CCC(NCCF)CC3)n12` (stereo not shown) [Example 228, N-(4-(8-amino-5-(4-((2-fluoroethyl)amino)cyclohex-1-en-1-yl)-3-isopropylimidazo[1,5-a]pyrazin-1-yl)-2,5-difluorophenyl)-2-chlorobenzenesulfonamide], 10 nM corresponded to half-maximal inhibition (IC50).

Regarding `CC(C)c1nc(-c2ccc(NS(=O)(=O)c3ccccc3F)c(F)c2)c2c(N)ncc(C3=CCC(NCCF)CC3)n12` (stereo not shown) [Example 229, N-(4-(8-amino-5-(4-((2-fluoroethyl)amino)cyclohex-1-en-1-yl)-3-isopropylimidazo[1,5-a]pyrazin-1-yl)-2-fluorophenyl)-2-fluorobenzenesulfonamide], the IC50 worked out at 25 nM.

In turn, `CC(C)c1nc(-c2ccc(NS(=O)(=O)c3ccccc3Cl)c(F)c2)c2c(N)ncc(C3=CCC(N(C)CCF)CC3)n12` (stereo not shown) [Example 230, N-(4-(8-amino-5-(4-((2-fluoroethyl)(methyl)amino)cyclohex-1-en-1-yl)-3-isopropylimidazo[1,5-a]pyrazin-1-yl)-2-fluorophenyl)-2-chlorobenzenesulfonamide] gave an IC50 of 19 nM.

`Cc1nc(-c2ccc(NS(=O)(=O)c3ccccc3Cl)c(F)c2)c2c(N)ncc(C3=CCC(NCCF)CC3)n12` (stereo not shown) [Example 231, N-(4-(8-amino-5-(4-((2-fluoroethyl)amino)cyclohex-1-en-1-yl)-3-methylimidazo[1,5-a]pyrazin-1-yl)-2-fluorophenyl)-2-chlorobenzenesulfonamide] yielded an IC50 of 19 nM.

Regarding `CC(C)c1nc(-c2ccc(NS(=O)(=O)c3ccccc3Cl)c(F)c2)c2c(N)ncc(C3=CCC(NC4COC4)CC3)n12` (stereo not shown) [Example 232, N-(4-(8-amino-3-isopropyl-5-(4-(oxetan-3-ylamino)cyclohex-1-en-1-yl)imidazo[1,5-a]pyrazin-1-yl)-2-fluorophenyl)-2-chlorobenzenesulfonamide], the IC50 came to 200 nM.

For a further experiment, the target named is IRE1α RNase (Homo sapiens (Human), UniProt O75460). Kind of experiment: Biochemical assay, inhibition of RNase activity of IRE1α.
Sequence of IRE1α RNase (O75460 468-977): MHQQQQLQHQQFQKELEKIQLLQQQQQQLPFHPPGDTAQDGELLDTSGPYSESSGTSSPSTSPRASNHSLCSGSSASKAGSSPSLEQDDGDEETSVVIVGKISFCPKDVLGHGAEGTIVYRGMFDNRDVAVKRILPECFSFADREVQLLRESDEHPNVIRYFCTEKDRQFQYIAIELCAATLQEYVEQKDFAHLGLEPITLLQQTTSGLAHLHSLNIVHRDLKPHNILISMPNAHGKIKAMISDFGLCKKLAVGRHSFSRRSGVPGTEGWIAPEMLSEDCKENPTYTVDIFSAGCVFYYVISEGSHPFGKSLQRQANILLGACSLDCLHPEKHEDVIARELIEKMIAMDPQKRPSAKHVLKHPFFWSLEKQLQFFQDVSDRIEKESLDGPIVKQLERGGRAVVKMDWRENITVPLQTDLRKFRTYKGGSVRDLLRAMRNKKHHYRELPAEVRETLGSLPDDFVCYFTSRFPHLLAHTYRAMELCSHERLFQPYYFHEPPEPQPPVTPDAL
Settings: not given
Regarding `CC(C)c1nc(-c2ccc(NS(=O)(=O)c3ccccc3Cl)c(F)c2)c2c(N)ncc(C3=CCC(NCC(F)F)CC3)n12` (stereo not shown) [Example 226, N-(4-(8-amino-5-(4-((2,2-difluoroethyl)amino)cyclohex-1-en-1-yl)-3-isopropylimidazo[1,5-a]pyrazin-1-yl)-2-fluorophenyl)-2-chlorobenzenesulfonamide], inhibition was half-maximal at 213 nM (IC50).

`CC(C)c1nc(-c2cc(F)c(NS(=O)(=O)c3ccccc3Cl)cc2F)c2c(N)ncc(C3=CCC(NCCF)CC3)n12` (stereo not shown) [Example 228, N-(4-(8-amino-5-(4-((2-fluoroethyl)amino)cyclohex-1-en-1-yl)-3-isopropylimidazo[1,5-a]pyrazin-1-yl)-2,5-difluorophenyl)-2-chlorobenzenesulfonamide] displayed an IC50 of 6 nM.

Molecule `CC(C)c1nc(-c2ccc(NS(=O)(=O)c3ccccc3F)c(F)c2)c2c(N)ncc(C3=CCC(NCCF)CC3)n12` (stereo not shown) [Example 229, N-(4-(8-amino-5-(4-((2-fluoroethyl)amino)cyclohex-1-en-1-yl)-3-isopropylimidazo[1,5-a]pyrazin-1-yl)-2-fluorophenyl)-2-fluorobenzenesulfonamide] displayed an IC50 of 25 nM.

For `CC(C)c1nc(-c2ccc(NS(=O)(=O)c3ccccc3Cl)c(F)c2)c2c(N)ncc(C3=CCC(NC4COC4)CC3)n12` (stereo not shown) [Example 232, N-(4-(8-amino-3-isopropyl-5-(4-(oxetan-3-ylamino)cyclohex-1-en-1-yl)imidazo[1,5-a]pyrazin-1-yl)-2-fluorophenyl)-2-chlorobenzenesulfonamide], the IC50 worked out at 60 nM.

Source of the values: patent publication US11649237B2, “Substituted imidazo[1,5-a]pyrazines for IRE1 inhibition” (Optikira LLC, priority 2017, dated 2023).
